Results reported in ChEMBL document CHEMBL5537206 (J Med Chem, 2024).
Activity calls are given as the source filed them. No cut-off for these calls is given here.

Legend:
[1] = system: MCF7; assay: Antiproliferative activity against human MCF7 cells incubated for 72 hrs by MTT assay; type: functional, cell-based; settings: MCF7, 72 h
[2] = system: NCI-H1975; assay: Antiproliferative activity against human NCI-H1975 cells incubated for 72 hrs by MTT assay; type: functional, cell-based; settings: NCI-H1975, 72 h
[3] = system: Osimertinib-resistant NCI-H1975 cell; assay: Antiproliferative activity against human Osimertinib-resistant NCI-H1975 cell (AZDR) incubated for 72 hrs by MTT assay; type: functional, cell-based
[4] = system: Mus musculus; assay: In vivo inhibition of EGFR L858R/T790M mutant in BALB/c nude mouse xenografted with human Osimertinib-resistant NCI-H1975 cell (AZDR) assessed as downregulation of EGFR phosphorylation at 10 mg/kg, po measured after 22 days; type: functional, organism-based; settings: time 22.0 day
[5] = system: Mus musculus; assay: In vivo inhibition of EGFR L858R/T790M mutant in BALB/c nude mouse xenografted with human Osimertinib-resistant NCI-H1975 cell (AZDR) assessed as downregulation of AKT phosphorylation at 10 mg/kg, po measured after 22 days; type: functional, organism-based; settings: time 22.0 day
[6] = system: Mus musculus; assay: In vivo inhibition of ACK1 in BALB/c nude mouse xenografted with human Osimertinib-resistant NCI-H1975 cell (AZDR) assessed as downregulation of ACK1 phosphorylation at 10 mg/kg, po measured after 22 days; type: functional, organism-based; settings: time 22.0 day
[7] = system: Osimertinib-resistant NCI-H1975 cell; assay: Anticancer activity against human Osimertinib-resistant NCI-H1975 cell (AZDR) xenografted in BALB/c nude mouse model assessed as increase in tumor cell apoptosis at 10 mg/kg, po in presence of dasatinib by TUNEL assay; type: functional, organism-based
[8] = system: Osimertinib-resistant NCI-H1975 cell; assay: Induction of apoptosis in human Osimertinib-resistant NCI-H1975 cell (AZDR) assessed as late apoptotic cells at 1 uM incubated for 24 hrs by Annexin V and propidium iodide staining based flow cytometry analysis (reference value: 1.06%); type: functional
[9] = system: Osimertinib-resistant NCI-H1975 cell; assay: Induction of apoptosis in human Osimertinib-resistant NCI-H1975 cell (AZDR) assessed as late apoptotic cells at 1 uM incubated for 24 hrs in presence of dasatinib by Annexin V and propidium iodide staining based flow cytometry analysis (reference value: 1.06%); type: functional
[10] = system: Osimertinib-resistant NCI-H1975 cell; assay: Induction of apoptosis in human Osimertinib-resistant NCI-H1975 cell (AZDR) assessed as early apoptotic cells at 1 uM incubated for 24 hrs by Annexin V and propidium iodide staining based flow cytometry analysis (reference value: 3.38%); type: functional
[11] = system: Osimertinib-resistant NCI-H1975 cell; assay: Induction of apoptosis in human Osimertinib-resistant NCI-H1975 cell (AZDR) assessed as early apoptotic cells at 1 uM incubated for 24 hrs in presence of dasatinib by Annexin V and propidium iodide staining based flow cytometry analysis (reference value: 3.38%); type: functional
[12] = system: Osimertinib-resistant NCI-H1975 cell; assay: Anticancer activity against human Osimertinib-resistant NCI-H1975 cell (AZDR) xenografted in BALB/c nude mouse model assessed as increase in tumor cell apoptosis at 10 mg/kg, po by TUNEL assay; type: functional, organism-based
[13] = system: Osimertinib-resistant NCI-H1975 cell; assay: Induction of apoptosis in human Osimertinib-resistant NCI-H1975 cell (AZDR) assessed as early apoptotic cells at 1 uM incubated for 24 hrs in presence of osimertinib by Annexin V and propidium iodide staining based flow cytometry analysis (reference value: 3.38%); type: functional
[14] = system: Osimertinib-resistant NCI-H1975 cell; assay: Anticancer activity against human Osimertinib-resistant NCI-H1975 cell (AZDR) xenografted in BALB/c nude mouse model assessed as increase tumor cell apoptosis at 10 mg/kg, po in presence of osimertinib by TUNEL assay; type: functional, organism-based
[15] = system: Osimertinib-resistant NCI-H1975 cell; assay: Induction of apoptosis in human Osimertinib-resistant NCI-H1975 cell (AZDR) assessed as late apoptotic cells at 1 uM incubated for 24 hrs in presence of osimertinib by Annexin V and propidium iodide staining based flow cytometry analysis (reference value: 1.06%); type: functional

SMILES | IC50 [1] [µM] | IC50 [2] [µM] | IC50 [3] [µM] | other results
C=CC(=O)Nc1cccc(Nc2nc(Nc3ccc(C)cc3)nc3ccc(Cl)cc23)c1 | 4.24 | 2.29 | 6.56 | 
C=CC(=O)Nc1cc(Nc2nccc(-c3cn(C)c4ccccc34)n2)c(OC)cc1N(C)CCN(C)C [OSIMERTINIB] | 1.16 | 0.015 | 4 | inhibition [4]: Active; inhibition [5]: inactive; inhibition [6]: Active; Activity [7]: Active; Activity [8]: 1.22%; Activity [9]: 20.6%; Activity [10]: 2.86%; Activity [11]: 19.6%; Activity [12]: inactive
C=CC(=O)Nc1cccc(Nc2nc(NCCn3cccn3)nc3ccc(Cl)cc23)c1 | 13.7 | 10.1 | 22.8 | 
C=CC(=O)Nc1cccc(Nc2nc(Nc3cnn(C)c3)nc3cc(C)ccc23)c1 | 0.52 | 1.59 | 3.34 | 
C=CC(=O)Nc1cccc(Nc2nc(Nc3cn(C)nc3C)nc3ccc(Cl)cc23)c1 | 15 | 4.05 | > 20 | 
C=CC(=O)Nc1cccc(Nc2nc(Nc3c(C)nn(C)c3C)nc3ccc(Cl)cc23)c1 | 4.4 | 2.89 | 1.62 | 
C=CC(=O)Nc1cccc(Nc2nc(Nc3cnn(Cc4ccccc4)c3)nc3ccc(Cl)cc23)c1 | 1.3 | 3.98 | 3.83 | 
C=CC(=O)Nc1cccc(Nc2nc(Nc3cnn(C)c3)nc3ccc(F)cc23)c1 | 2.36 | 8.76 | 1.52 | 
C=CC(=O)Nc1cccc(Nc2nc(Nc3cnn(CCOC)c3)nc3ccc(Cl)cc23)c1 | 6.56 | 3.18 | 3.71 | 
C=CC(=O)Nc1cccc(Nc2nc(Nc3cnn(C)c3C)nc3ccc(Cl)cc23)c1 | 3.24 | 1.02 | 3.4 | 
Cc1nc(Nc2ncc(C(=O)Nc3c(C)cccc3Cl)s2)cc(N2CCN(CCO)CC2)n1 [DASATINIB ANHYDROUS] |  |  |  | inhibition [4]: Active; inhibition [5]: inactive; Activity [13]: 19.6%; inhibition [6]: Active; Activity [8]: 7.4%; Activity [14]: Active; Activity [10]: 10.2%; Activity [12]: inactive; Activity [15]: 20.6%
C=CC(=O)Nc1cccc(Nc2nc(Nc3cn(CC)nc3C)nc3ccc(Cl)cc23)c1 | 10.8 | > 20 | 2.14 | 
C=CC(=O)Nc1cccc(Nc2nc(Nc3cnn(CCN4CCOCC4)c3)nc3ccc(Cl)cc23)c1 | 8.78 | 1.7 | 3.45 | 
C=CC(=O)Nc1cccc(Nc2nc(Nc3ccnn3C)nc3ccc(Cl)cc23)c1 | 6.89 | 4.25 | 9.47 | 
C=CC(=O)Nc1cccc(Nc2nc(Nc3cnn(C4CCOCC4)c3)nc3ccc(Cl)cc23)c1 | 2.91 | 1.4 | 3.72 | 
C=CC(=O)Nc1cccc(Nc2nc(Nc3ccn(C)n3)nc3ccc(Cl)cc23)c1 | 12.4 | 1.37 | 3.55 | 
C=CC(=O)Nc1cccc(Nc2nc(Nc3cnn(C)c3)nc3cccc(F)c23)c1 | 9.16 | 1.06 | 3.44 | 
C=CC(=O)Nc1cccc(Nc2nc(Nc3cnn(C)c3)nc3c(Cl)cccc23)c1 | 1.72 | 2.21 | > 20 | 
C=CC(=O)Nc1cccc(Nc2nc(Nc3cccc(C)c3)nc3ccc(Cl)cc23)c1 | 7.73 | 2.68 | 4.77 | 
C=CC(=O)Nc1cccc(Nc2nc(Nc3cnn(C)c3)nc3ccc(I)cc23)c1 | 1.84 | 0.75 | 0.98 | 
CCC(=O)Nc1cccc(Nc2nc(Nc3cnn(C)c3)nc3ccc(Cl)cc23)c1 | 4.68 | 6.35 | 9.58 | 
C=CC(=O)Nc1cccc(Nc2nc(Nc3cccc(Br)c3)nc3ccc(Cl)cc23)c1 | 3.58 | 2.94 | 2.8 | 
C=CC(=O)Nc1cccc(Nc2nc(Nc3cnn(CC(F)(F)F)c3)nc3ccc(Cl)cc23)c1 | 6.83 | 2.15 | 3.55 | 

SMILES | IC50 [1] [µM] | IC50 [2] [µM] | IC50 [3] [µM] | other results
C=CC(=O)Nc1cccc(Nc2nc(Nc3cn(C)nc3C(F)(F)F)nc3ccc(Cl)cc23)c1 | 5.72 | 1.02 | 3.36 | 
C=CC(=O)Nc1cccc(Nc2nc(Nc3cnn(C)c3)nc3ccc(C)cc23)c1 | 1.24 | 1.86 | 2.51 | 
C=CC(=O)Nc1cccc(Nc2nc(Nc3cc(C(F)(F)F)n(C)n3)nc3ccc(Cl)cc23)c1 | 10 | 2.36 | 3.45 | 
C=CC(=O)Nc1cccc(Nc2nc(Nc3ccc(N(C)CCN(C)C)cc3)nc3ccc(Cl)cc23)c1 | 2.53 | 1.24 | 1.89 | 
C=CC(=O)Nc1cccc(Nc2nc(Nc3cnn(C)c3)nc3ccc(OC)cc23)c1 | 2.2 | 1.52 | 4.64 | 
C=CC(=O)Nc1cccc(Nc2nc(Nc3cn[nH]c3)nc3ccc(Cl)cc23)c1 | 5.37 | 2.56 | 4.68 | 
C=CC(=O)Nc1cccc(Nc2nc(Nc3ccccc3C)nc3ccc(Cl)cc23)c1 | 8.26 | 6.58 | 7.31 | 
C=CC(=O)Nc1cccc(Nc2nc(Nc3cnn(C(C)(C)C)c3)nc3ccc(Cl)cc23)c1 | 5.64 | 2.1 | 3.94 | 
C=CC(=O)Nc1cccc(Nc2nc(Nc3cnn(C)c3)nc3ccc(Br)cc23)c1 | 1.64 | 1.1 | 2.35 | 
C=CC(=O)Nc1cccc(Nc2nc(Nc3ccc(-n4cccn4)cc3)nc3ccc(Cl)cc23)c1 | 4.78 | 1.51 | 5.84 | 
C=CC(=O)Nc1cccc(Nc2nc(Nc3cnn(C)c3)nc3cc(C(F)(F)F)ccc23)c1 | 1.16 | 1.3 | 2.62 | 
C=CC(=O)Nc1cccc(Nc2nc(Nc3cnn(C)c3)nc3ccc(C(F)(F)F)cc23)c1 | 18.2 | 1.56 | 2.75 | 
C=CC(=O)Nc1cccc(Nc2nc(Nc3cnn(C)c3)nc3cccc(Cl)c23)c1 | 1.85 | 0.81 | 2.44 | 
C=CC(=O)Nc1cccc(Nc2nc(Nc3cnn(C)c3)nc3ccccc23)c1 | 4.6 | 0.94 | 2.81 | 
C=CC(=O)Nc1ccc(Nc2nc(Nc3cnn(C)c3)nc3ccc(Cl)cc23)cc1 | 3.58 | 7.58 | 7.35 | 
C=CC(=O)Nc1cccc(Nc2nc(Nc3cnn(C4CCN(C)CC4)c3)nc3ccc(Cl)cc23)c1 | 5.26 | 2.35 | 4.53 | 
C=CC(=O)Nc1cccc(Nc2nc(Nc3cnn(C)c3)nc3cc(OC)ccc23)c1 | 1.34 | 1.38 | 2.5 | 
C=CC(=O)Nc1cccc(Nc2nc(Nc3cnn(C)c3)nc3cc(F)ccc23)c1 | 11.1 | 1.28 | 17.7 | 
C=CC(=O)Nc1cccc(Nc2nc(Nc3cnn(C)c3)nc3cc(Cl)ccc23)c1 | 2.95 | 15 | 13.8 | 
C=CC(=O)Nc1cccc(Nc2nc(Nc3cnn(-c4ccccc4)c3)nc3ccc(Cl)cc23)c1 | 15.2 | 10.1 | 8.13 | 
C=CC(=O)Nc1ccccc1Nc1nc(Nc2cnn(C)c2)nc2ccc(Cl)cc12 | 4.26 | 5.63 | 6.53 | 
C=CC(=O)Nc1cccc(Nc2nc(Nc3cnn(C)c3)nc3ccc(Cl)cc23)c1 | 1.23 | 0.95 | 1.04 | 
C=CC(=O)Nc1cccc(Nc2nc(Nc3cnn(C)c3)nc3c(F)cccc23)c1 | 3.74 | 2.11 | 3.34 | 
